The record followed here is US9289412B2, “Role of limonoid compounds as neuroprotective agents” (The Johns Hopkins University, priority 2006, dated 2016).

The test system of this experiment is rat mixed hippocampal cultures. As to the kind of experiment: 3-NP neurotoxicity assay, MTT viability, rat mixed hippocampal cultures. The class given is cell-based. As to conditions: 1 h preincubation, test concentration (10 μM); for inhibition at 10 µM: Rattus norvegicus. As to the method: For example, a cell viability assay can be used in a preliminary screen on a large series of compounds each of which is tested at a fixed concentration. In some embodiments, mixed hippocampal cell cultures are prepared as described in, e.g., Haughey et al. (1999), J Neurochem, 73(4):1363-1374, and Haughey et al (2004), J Neurosci, 24(1):257-268. Subsequently, the cultures are pretreated for one hour in the presence of a candidate neuroprotective agent and then incubated with a cytotoxic agent for about 18 hours. Examples of cytotoxic agents include, but are not limited to, oxidative stressors (e.g., 3-nitropropionic acid (3-NP) or H2O2), excitatory amino acids (e.g., kainate), or neurotoxic proteins (e.g., Hiv Tat, or Aβ peptides). […] The level of protection (“percent protection”) provided by the test compound at a given test concentration in vitro can be expressed as: […]
A variety of methods for determining cell viability may be used. In some embodiments, cell viability is assessed based on the “MTT” assay method described in Mosmann (1983), J Immunol Methods, 65(1-2):55-63, or a variant thereof. This assay is based on the ability of a mitochondrial dehydrogenase enzyme from viable cells to cleave the tetrazolium rings of the pale yellow MTT and form dark blue formazan crystals, which are trapped in cells and readily quantified by ELISA spectrophotometry.
We sought to evaluate the protective efficacy of a number of modified terpenoid compounds against the against many different neurotoxins, ranging from the chemotoxic 6-OHDA, NMDA, 3-nitropropionic acid (3-NP), and viral proteins such as Tat and gp120. Thus, we established an in vitro neuroprotection assay using rat mixed hippocampal cultures, in which we evaluated the protective efficacy of neuroprotective compounds disclosed herein. The oxidative stressor 3-NP was used to elicit toxicity in the rat hippocampal cultures to mimic the oxidative damage, reactive oxygen species production and ensuing neurodegeneration resulting from HIV infection. Another measure of neurotoxicity which results from HIV infection was evaluated by exposure of the hippocampal cultures to HIV-1 Tat (Li et al (2005), Neurotox Res, 8(1-2): 119-134).
Rat mixed hippocamal neuronal cultures were generated from freshly dissected rat hippocampi (embryonic day 18) in neurobasal media containing 5% fetal bovine serum and 2% B27 supplement. The cells were plated into 96 well plates at a density of 4×10^5 cells/mL and routinely used on days 11-14 following culturing. Cell viability was assessed with MTT [3-(4,5-dimethylthiazol-2-yl)-2,5-diphenyltetrazolium bromide] assay. The MTT assay is based on the ability of a mitochondrial dehydrogenase enzyme from viable cells to cleave the tetrazolium rings of the pale yellow MTT and form dark blue formazan crystals. See Mosmann (1983), J Immunol Methods, 65(1-2):55-63. These crystals are largely impermeable to cell membranes, and thus accumulate within healthy cells. The resultant formazan precipitates are solubilized with DMSO and read on a multiwell scanning spectrophotometer (ELISA reader). The number of surviving cells is directly proportional to the level of the formazan product created.
Mixed hippocampal cultures were incubated with 3-NP (0.5-10 mM) for 18 hours and then assessed for viability using an MTT assay.
Cultures were preincubated with GPI 1046 or Resveratrol for one hour prior to an 18 hour exposure to 3 mM 3-NP. […] The same neuroprotective compounds were evaluated for efficacy against HIV-1 Tat protein toxicity using the same 1 hour preincubation protocol.

Setting [1] is: Table 2, vs 3 mM 3-NP 18 h, read-out: % Protection.
Where [2] appears, read: Table 3, 3 mM 3-NP 18 h, read-out: % Protection vs 3-NP.

Where two headings read alike, the source gives them in different places.

Take `CC(=O)O[C@@H]1CC2C(C)(C)C(=O)C3OC3[C@]2(C)C2CC[C@@]3(C)C(=CC(=O)O[C@@H]3c3ccoc3)[C@@]21C` (stereo partly drawn) [1 (2)alpha- EPOXYDEOXYDIHYDRO- GEDUNIN, 1 (2)alpha-EPOXYDEOXYDIHYDROGEDUNIN]: under setting [1], the inhibition at 10 µM was found to be 14%.
Regarding `CC1(C)C(=O)[C@@H]2O[C@@H]2[C@@]2(C)C1C[C@@H](O)[C@]1(C)C2CC[C@@]2(C)[C@H](c3ccoc3)OC(=O)C3OC321` (stereo partly drawn) [1,2alpha- EPOXYDEACET[…], 1,2alpha-EPOXYDEACETOXYDIHYDROGEDUNIN], the “% Protection” value (Table 2, vs 3 mM 3-NP 18 h) was 25%.
As to `CC1(C)C2CC(=O)[C@]3(C)C(CC[C@@]4(C)[C@H](c5ccoc5)OC(=O)C5OC543)[C@@]2(C)[C@@H](O)C[C@H]1O` (stereo partly shown) [1,3-DIDEACETYL-7-DEACETOXY-7-OXOKHIVORIN], the inhibition at 10 µM under setting [2] turned out to be 15%. In addition, the “% Protection” value (Table 2, vs 3 mM 3-NP 18 h) is recorded as 15%.
As to `CC(=O)O[C@@H]1CC2C(C)(C)[C@H](O)C[C@H](O)[C@]2(C)C2CC[C@]3(C)[C@@H](c4ccoc4)OC(=O)[C@H]4O[C@]43[C@@]21C` (stereo partly shown) [1,3-DIDEACETYLKHIVORIN], the inhibition at 10 µM under setting [1] is 129%.
`CC1(C)C2CC(=O)[C@]3(C)C(CC[C@@]4(C)[C@H](c5ccoc5)OC(=O)[C@H]5O[C@]543)[C@@]2(C)C(=O)C[C@H]1O` (stereo partly shown) [1,7-DIDEACETOXY-1,7-DIOXO-3-DEACETYLKHIVORIN]: the inhibition at 10 µM under setting [2] was found to be 15%. For the setting “Table 2, vs 3 mM 3-NP 18 h”, the “% Protection” value was determined as 15%.
For `CC(=O)OC1CC2C(C)(C)CCC(=O)[C@]2(C)C2CC[C@@]3(C)[C@H](c4ccoc4)OC(=O)C4OC43[C@]12C` (stereo partly shown) [2,3-DIHYDROISOGEDUNIN], the “% Protection” value (Table 2, vs 3 mM 3-NP 18 h) turned out to be 44%.
`CC(=O)O[C@H]1C[C@@H](O)C(C)(C)[C@@H]2C[C@@H](OC(C)=O)[C@]3(C)[C@H](CC[C@@]4(C)[C@@H](c5ccoc5)OC(=O)[C@H]5O[C@@]534)[C@@]12C` [3-DEACETYLKHIVORIN]: for the setting “Table 3, 3 mM 3-NP 18 h”, the “% Protection vs 3-NP” value was determined as 7%.
As to `CC(=O)O[C@H]1CC[C@@]2(C)C(C[C@@H](OC(C)=O)[C@@]3(C)C4=CC(=O)O[C@@H](c5ccoc5)[C@]4(C)CCC23)C1(C)C` (stereo partly drawn) [3-DEOXO-3beta-ACETOXYDEOXYDIHYDROGEDUNIN], the inhibition at 10 µM under setting [1] worked out at 56%.
For the molecule `CC(=O)O[C@@H]1CC2C(C)(C)[C@H](O)C=C[C@]2(C)C2CC[C@]3(C)C(=CC(=O)O[C@H]3c3ccoc3)[C@@]21C` (stereo partly drawn) [3-alpha- HYDROXYDEOXYGEDININ, 3-alpha-HYDROXYDEOXYGEDININ], the “% Protection” value (Table 2, vs 3 mM 3-NP 18 h) is 28%.
With `CC(=O)O[C@@H]1CC[C@@]2(C)C(C[C@@H](OC(C)=O)[C@@]3(C)C4=CC(=O)O[C@@H](c5ccoc5)[C@]4(C)CCC23)C1(C)C` (stereo partly drawn) [3alpha- ACETOXYDIHYDRODEOXY- GEDUNIN, 3alpha-ACETOXYDIHYDRODEOXYGEDUNIN], the inhibition at 10 µM under setting [1] is 151%.
With `C=C1C2CC[C@]3(C)[C@@H](c4ccoc4)OC(=O)CC13O[C@H]1CC(O)C(C)(C)C(CC(=O)OC)[C@@]21C` (stereo partly drawn) [3alpha-HYDROXY-3-DEOXYANGOLENSIC ACID METHYL ESTER], under setting [1], the inhibition at 10 µM amounted to 35%.
With `CC(=O)O[C@H]1CC[C@@]2(C)C(C[C@H](OC(C)=O)[C@@]3(C)C4=CC(=O)OC(c5ccoc5)[C@]4(C)CCC23)C1(C)C` (stereo partly drawn) [3beta,7beta-DIACETOXYDEOXODEACETOXYDEOXYDIHYDROGEDUNIN], the inhibition at 10 µM under setting [1] came out at 61%.
Consider `CC(=O)O[C@H]1CC[C@]2(C)[C@H]3CC[C@@]4(C)[C@H](c5ccoc5)OC(=O)[C@H]5O[C@]54[C@]3(C)[C@H](OC(C)=O)C[C@H]2C1(C)C` [3beta- ACETOXYDEOXODIHYDRO- GEDUNIN, 3beta-ACETOXYDEOXODIHYDROGEDUNIN], for which the inhibition at 10 µM runs as follows: under setting [1], 39%; under setting [2], 39%.
Regarding `CC(=O)OC1CC2C(C)(C)[C@@H](O)CC[C@]2(C)C2CC[C@]3(C)[C@H](c4ccoc4)OC(=O)[C@H]4O[C@]43[C@]12C` (stereo partly drawn) [3beta- HYDROXYDEOXODIHYDRO- GEDUNIN, 3beta-HYDROXYDEOXODIHYDROGEDUNIN], the inhibition at 10 µM under setting [1] came out at 82%.
On to `C=C1C2CC[C@@]3(C)[C@H](c4ccoc4)OC(=O)C[C@]13O[C@H]1C[C@@H](OC(C)=O)C(C)(C)[C@H](CC(=O)OC)[C@@]21C` [3beta-ACETOXYDEOXYANGOLENSIC ACID, METHYL ESTER], for which, under setting [1], the inhibition at 10 µM was 128%.
Same read-out and setting: the figure for `CC1(C)C2CC(=O)[C@]3(C)C(CC[C@@]4(C)[C@H](c5ccoc5)OC(=O)[C@H]5O[C@]543)[C@@]2(C)C=C[C@@H]1O` (stereo partly drawn) [3beta-HYDROXYDEOXYDESACETOXY-7-OXOGEDUNIN] is 30%.
For `C=C1C2CC[C@@]3(C)[C@H](c4ccoc4)OC(=O)C[C@]13O[C@H]1CC(=O)C(C)(C)[C@H](C(O)C(=O)OC)[C@@]21C` (stereo partly shown) [6-HYDROXYANGOLENSIC ACID METHYL ESTER], the inhibition at 10 µM was found to be 26% under setting [1] and 26% under setting [2].
Take `CC1(C)C(=O)C=C[C@@]2(C)C1CC(=O)[C@@]1(C)C3=CC(=O)O[C@@H](c4ccoc4)[C@]3(C)CCC12` (stereo partly shown) [7-DEACETOXY-7- OXODEOXYGEDUNIN, 7-DEACETOXY-7-OXODEOXYGEDUNIN]: the inhibition at 10 µM under setting [1] came to 24%.
On to `CC(=O)O[C@H]1C[C@@H](OC(C)=O)C(C)(C)C2CC(=O)[C@]3(C)C(CC[C@@]4(C)[C@H](c5ccoc5)OC(=O)[C@H]5O[C@]543)[C@]21C` (stereo partly shown) [7-DEACETOXY-7- OXOKHIVORIN, 7-DEACETOXY-7-OXOKHIVORIN], for which the inhibition at 10 µM came to 36% under setting [1] and 36% under setting [2].
As to `COC(=O)[C@@H]1OC(=O)C2OC23[C@@]1(C)CCC1[C@]2(C)C(CC(=O)[C@]13C)C(C)(C)[C@H](OC(C)=O)C[C@@H]2OC(C)=O` (stereo partly shown) [7-DEACETOXY-7-OXOKHIVORINIC ACID, METHYL ESTER], where the note is “Table 2, vs 3 mM 3-NP 18 h”, the “% Protection” value came to 42%.
As for `CC(=O)O[C@H]1C[C@@H](OC(C)=O)C(C)(C)C2C[C@@H](O)[C@]3(C)C(CC[C@@]4(C)[C@H](c5ccoc5)OC(=O)[C@H]5O[C@]543)[C@]21C` (stereo partly shown) [7-DEACETYLKHIVORIN], under setting [2], the inhibition at 10 µM was 32%. Also, for the setting “Table 2, vs 3 mM 3-NP 18 h”, the “% Protection” value turned out to be 32%.
On to `CC(=O)O[C@H]1C[C@@H](OC(C)=O)C(C)(C)C2C[C@H](OC(C)=O)[C@]3(C)C(CC[C@@]4(C)[C@H](c5ccoc5)OC(=O)[C@H]5O[C@]543)[C@]21C` (stereo partly shown) [7-EPIKHIVORIN], for which the inhibition at 10 µM under setting [1] was found to be 65%.
Consider `COC(=O)[C@@H]1OC(=O)C2OC23[C@@]1(C)CCC1[C@]2(C)C(C[C@H](O)[C@]13C)C(C)(C)[C@H](OC(C)=O)C[C@@H]2OC(C)=O` (stereo partly drawn) [7beta-HYDROXY-7-DESACETOXYKHIVORINIC ACID, METHYL ESTER], for which the “% Protection” value (Table 2, vs 3 mM 3-NP 18 h) is given as 84%.
For `COC(=O)C[C@H]1C(C)(C)C2(O)OC34CC2C(=O)[C@]1(C)C3CC[C@]1(C)C4=CC(=O)O[C@H]1c1ccoc1` (stereo partly drawn) [8beta-HYDROXYCARAPIN, 3,8-HEMIACETAL], the “% Protection vs 3-NP” value (Table 3, 3 mM 3-NP 18 h) is listed as 9%.
Take `COC(=O)C[C@H]1C2(C)CC34OC5(C)O[C@@]6([C@H](OC(C)=O)C(OC(C)=O)[C@]7(C)C(/C(=C(/O)C(C)C)C(=O)O[C@H]7c7ccoc7)[C@@]6(O5)[C@H](OC(C)=O)[C@@]3(O)C2OC(=O)C(C)C)[C@]14C` (stereo partly shown) [BUSSEIN]: the inhibition at 10 µM under setting [2] came to 18%.
`COC(=O)C[C@H]1C(C)(C)C(=O)[C@@H]2CC3=C(CC[C@]4(C)C3=CC(=O)O[C@H]4c3ccoc3)[C@@]1(C)C2=O` [CARAPIN-8(9)-ENE]: the “% Protection vs 3-NP” value (Table 3, 3 mM 3-NP 18 h) is reported as 38%.
In the case of `COC(=O)C[C@H]1C(C)(C)C(=O)[C@@H]2CC3C4=CC(=O)O[C@@H](c5ccoc5)[C@]4(C)CC[C@@H]3[C@@]1(C)C2=O` (stereo partly shown) [CARAPIN], the inhibition at 10 µM under setting [2] came out at 18%.
In the case of `CC1(C)C(=O)C=C[C@@]2(C)C1CC(=O)[C@]1(C)C2CC[C@@]2(C)[C@H](c3ccoc3)OC(=O)[C@H]3O[C@]321` (stereo partly shown) [DEACETOXY-7-OXOGEDUNIN], the inhibition at 10 µM under setting [1] came out at 38% and the inhibition at 10 µM under setting [2] was 38%.
Consider `CC1(C)C(=O)C=C[C@@]2(C)C1C[C@@H](O)[C@]1(C)C2CC[C@@]2(C)[C@H](c3ccoc3)OC(=O)[C@H]3O[C@]321` (stereo partly shown) [DEACETYLGEDUNIN], for which the inhibition at 10 µM under setting [2] came to 19%. Further, the “% Protection” value (Table 2, vs 3 mM 3-NP 18 h) worked out at 19%.
